Results: US9006459B2, “Fluorescent markers and use thereof for labeling specific protein targets” (University of Ottawa, priority 2010, dated 2015)

Tests used:
[1] = Fluorescence enhancement (FE) ratio upon reaction with excess MPA; type: physicochemical; conditions: for FE (fluorescence enhancement ratio): HEPES (pH 7.4)/DMSO 5%, final divided by initial fluorescence intensity
Protocol: (§1) Spectroscopic characterization of fluorogen 5 included absorbance and fluorescence emission maxima as well as the fluorescence enhancement (FE) ratio. The spectroscopic characteristics were evaluated in two solvent systems (DMSO and HEPES (pH 7.4)/5% DMSO). The FE ratio determination was carried out by reacting 5 with excess mercaptopropionic acid (MPA) and then dividing the final fluorescence by the initial fluorescence intensity, at a specific fluorogen concentration.
Determination of Fluorescence Enhancement Ratios
(§2) Absorbance spectra were recorded at 25° C., with a Cary-100 spectrometer. Emission spectra and fluorescence intensity measurements were recorded at 25° C. with a Cary Eclipse fluorometer. Excitation and emission slits were fixed at 5 nm
3-Mercaptopropionic acid (50 eq) was added to a 1 to 4 mM DMSO solution of fluorogen. The resulting mixture was stirred at 25° C., in the dark for 18 hours after which fluorescence intensities of a dilution in HEPES buffer (pH 7.4) were recorded. Final fluorescence intensity was then divided by the initial florescence intensity at the same fluorogen concentration leading to the fluorescence enhancement ratio for the fluorogen.

[2] = Photophysical properties (absorbance/excitation and fluorescence emission maxima, fluorescence intensity); type: physicochemical; conditions: for initial fluorescence intensity: before reaction with MPA
Protocol: as §1, §2

## 8-(2′,6′-di-((4″-(3-methylmaleimido)phenyl)ethynyl))-4,4-difluoro-4-bora-3a,4a-diaza-s-indacene [Fluorogen 17]
[1]
  FE (fluorescence enhancement ratio): 6.4

## 8-(3′,5′-di-(3-methylmaleimido)-phenyl-4,4-difluoro-4-bora-3a,4a-diaza-s-indacene [Fluorogen 13]
[2]; di-MPA adduct in HEPES/DMSO 5%
  λem MPA adduct: 514 nm
  λex MPA adduct: 510 nm
[2]; fluorogen in HEPES/DMSO 5%
  λem: 514 nm
  λex: 510 nm
[1]
  FE (fluorescence enhancement ratio): 3.5

## CC1=CC(=O)N(c2cc(NS(=O)(=O)c3cccc4c(N(C)C)cccc34)cc(N3C(=O)C=C(C)C3=O)c2)C1=O [Fluorogen 5, N-Dansyl-3,5-di-(3-methylmaleimido)aniline]
[2]; aqueous media (HEPES/5% DMSO)
  initial fluorescence intensity: at the level of the background noise
[2]; di-MPA adduct in DMSO
  λem MPA adduct: 540 nm
  λex MPA adduct: 350 nm
[2]; di-MPA adduct in HEPES/DMSO 5%
  λem MPA adduct: 520 nm
  λex MPA adduct: 325 nm
[2]; fluorogen in DMSO
  λem: 540 nm
  λex: 345 nm
[2]; fluorogen in HEPES/DMSO 5%
  λem: 520 nm
  λex: 325 nm
[2]; pure DMSO
  initial fluorescence intensity: approximately 2
other
  melting point: 230 °C
[1]; pure DMSO
  fluorescence intensity increase upon reaction with MPA: over 300 fold

## COc1ccc2cc(C(=O)NCc3cc(N4C(=O)C=C(C)C4=O)cc(N4C(=O)C=C(C)C4=O)c3)c(=O)oc2c1 [Fluorogen 11, 7-Methoxy-3-(3,5-di-(3-methylmaleimido)benzyl)aminocarbonyl coumarin]
[2]; di-MPA adduct in HEPES/DMSO 5%
  λem MPA adduct: 404 nm
  λex MPA adduct: 347 nm
[2]; fluorogen in HEPES/DMSO 5%
  λem: 404 nm
  λex: 347 nm
[1]
  FE (fluorescence enhancement ratio): 6.4
